Results reported in patent US20220125051A1, “PRE-HARVEST DESICCATION METHOD” (SYNGENTA CROP PROTECTION AG, priority 2019, published 2022).
Like-named read-outs stand apart in the source and are kept apart here.

Tests used:
Assay in all cases: Post-emergence efficacy, Method A
Assay type in all cases: in vivo
[1] = system: Amaranthus palmeri (AMAPA); details: evaluated after 13 days; for pest or weed control at 500 g/ha: Amaranthus palmeri, post-emergence, 312 h
Procedure, shortened: (§1)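 Visual damage score, 0 (no damage) to 100 (total), taken 13 d after spraying. Pot-grown plants at 14 d post-sowing received an aqueous spray from a 50 g/l acetone/IF50 solution diluted in 0.25% or 1% Empicol ESC70 + 1% ammonium sulphate; glasshouse 24/16 °C, 14 h light, 65% RH, watered twice daily.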

[2] = system: Chenopodium album (CHEAL); details: evaluated after 13 days; for pest or weed control at 500 g/ha: Chenopodium album, post-emergence, 312 h
Procedure, shortened: as §1

[3] = system: Digitaria sanguinalis (DIGSA); details: evaluated after 13 days; for pest or weed control at 500 g/ha: Digitaria sanguinalis, post-emergence, 312 h
Procedure, shortened: as §1

[4] = system: Echinochloa crus-galli (ECHCG); details: evaluated after 13 days; for pest or weed control at 500 g/ha: Echinochloa crus-galli, post-emergence, 312 h
Procedure, shortened: as §1

Eleusine indica (ELEIN) = details: evaluated after 13 days; for pest or weed control at 500 g/ha: Eleusine indica, post-emergence, 312 h
Procedure, shortened: as §1

[5] = system: Euphorbia heterophylla (EPHHL); details: evaluated after 13 days; for pest or weed control at 500 g/ha: Euphorbia heterophylla, post-emergence, 312 h
Procedure, shortened: as §1

[6] = system: Ipomoea hederacea (IPOHE); details: evaluated after 13 days; for pest or weed control at 500 g/ha: Ipomoea hederacea, post-emergence, 312 h
Procedure, shortened: as §1

Lolium perenne (LOLPE) = details: evaluated after 13 days; for pest or weed control at 500 g/ha: Lolium perenne, post-emergence, 312 h
Procedure, shortened: as §1

Setaria faberi (SETFA) = details: evaluated after 13 days; for pest or weed control at 500 g/ha: Setaria faberi, post-emergence, 312 h
Procedure, shortened: as §1

[7] = Application rate 500 g/Ha, 100=total damage to plant, 0=no damage to plant
[8] = Application Rate 500 g/Ha, Method A, read-out: Control of weed species after post-emergence application, AMAPA (100=total damage to plant; 0=no damage to plant)
[9] = Application Rate 500 g/Ha, Method A, read-out: Control of weed species after post-emergence application, CHEAL (100=total damage to plant; 0=no damage to plant)
[10] = Application Rate 500 g/Ha, Method A, read-out: Control of weed species after post-emergence application, DIGSA (100=total damage to plant; 0=no damage to plant)
[11] = Application Rate 500 g/Ha, Method A, read-out: Control of weed species after post-emergence application, ECHCG (100=total damage to plant; 0=no damage to plant)
[12] = Application Rate 500 g/Ha, Method A, read-out: Control of weed species after post-emergence application, ELEIN (100=total damage to plant; 0=no damage to plant)
[13] = Application Rate 500 g/Ha, Method A, read-out: Control of weed species after post-emergence application, EPHHL (100=total damage to plant; 0=no damage to plant)
[14] = Application Rate 500 g/Ha, Method A, read-out: Control of weed species after post-emergence application, IPOHE (100=total damage to plant; 0=no damage to plant)
[15] = Application Rate 500 g/Ha, Method A, read-out: Control of weed species after post-emergence application, LOLPE (100=total damage to plant; 0=no damage to plant)
[16] = Application Rate 500 g/Ha, Method A, read-out: Control of weed species after post-emergence application, SETFA (100=total damage to plant; 0=no damage to plant)
[17] = Application rate 500 g/Ha, 100=total damage to plant, 0=no damage to plant, read-out: Control of weed species after post-emergence application, AMAPA
[18] = Application rate 500 g/Ha, 100=total damage to plant, 0=no damage to plant, read-out: Control of weed species after post-emergence application, CHEAL
[19] = Application rate 500 g/Ha, 100=total damage to plant, 0=no damage to plant, read-out: Control of weed species after post-emergence application, DIGSA
[20] = Application rate 500 g/Ha, 100=total damage to plant, 0=no damage to plant, read-out: Control of weed species after post-emergence application, ECHCG
[21] = Application rate 500 g/Ha, 100=total damage to plant, 0=no damage to plant, read-out: Control of weed species after post-emergence application, ELEIN
[22] = Application rate 500 g/Ha, 100=total damage to plant, 0=no damage to plant, read-out: Control of weed species after post-emergence application, EPHHL
[23] = Application rate 500 g/Ha, 100=total damage to plant, 0=no damage to plant, read-out: Control of weed species after post-emergence application, IPOHE
[24] = Application rate 500 g/Ha, 100=total damage to plant, 0=no damage to plant, read-out: Control of weed species after post-emergence application, LOLPE
[25] = Application rate 500 g/Ha, 100=total damage to plant, 0=no damage to plant, read-out: Control of weed species after post-emergence application, SETFA

Compound | pest or weed control at 500 g/ha [1, 8] | pest or weed control at 500 g/ha [2, 9] | pest or weed control at 500 g/ha [3, 10] | pest or weed control at 500 g/ha [4, 11] | pest or weed control at 500 g/ha (Eleusine indica (ELEIN); [12]) | pest or weed control at 500 g/ha [5, 13] | pest or weed control at 500 g/ha [6, 14] | pest or weed control at 500 g/ha (Lolium perenne (LOLPE); [15]) | pest or weed control at 500 g/ha (Setaria faberi (SETFA); [16]) | pest or weed control at 500 g/ha [1, 17] | pest or weed control at 500 g/ha [2, 18] | pest or weed control at 500 g/ha [3, 19] | pest or weed control at 500 g/ha [4, 20] | pest or weed control at 500 g/ha (Eleusine indica (ELEIN); [21]) | pest or weed control at 500 g/ha [5, 22] | pest or weed control at 500 g/ha [6, 23] | pest or weed control at 500 g/ha (Lolium perenne (LOLPE); [24]) | pest or weed control at 500 g/ha (Setaria faberi (SETFA); [25]) | also measured
N#Cc1cnc(-c2cc[n+](CCS(=O)(=O)O)nc2)nc1 [Compound A25] | – | – | – | – | – | – | – | – | – | – | – | – | – | – | – | – | – | – | Control of weed species after post-emergence application, AMAPA [1, 7]: 100; Control of weed species after post-emergence application, CHEAL [2, 7]: 60; Control of weed species after post-emergence application, DIGSA [3, 7]: 50; Control of weed species after post-emergence application, ECHCG [4, 7]: 70; Control of weed species after post-emergence application, ELEIN (Eleusine indica (ELEIN); [7]): 50; Control of weed species after post-emergence application, EPHHL [5, 7]: 40; Control of weed species after post-emergence application, IPOHE [6, 7]: 50; Control of weed species after post-emergence application, LOLPE (Lolium perenne (LOLPE); [7]): 40; Control of weed species after post-emergence application, SETFA (Setaria faberi (SETFA); [7]): 60
COc1cc(C)nc(-c2cc[n+](CCS(=O)(=O)O)nc2)n1 [Compound A94] | – | – | – | – | – | – | – | – | – | – | – | – | – | – | – | – | – | – | Control of weed species after post-emergence application, AMAPA [1, 7]: 70; Control of weed species after post-emergence application, CHEAL [2, 7]: 90; Control of weed species after post-emergence application, DIGSA [3, 7]: 30; Control of weed species after post-emergence application, ECHCG [4, 7]: 30; Control of weed species after post-emergence application, ELEIN (Eleusine indica (ELEIN); [7]): 20; Control of weed species after post-emergence application, EPHHL [5, 7]: 40; Control of weed species after post-emergence application, IPOHE [6, 7]: 30; Control of weed species after post-emergence application, LOLPE (Lolium perenne (LOLPE); [7]): 20; Control of weed species after post-emergence application, SETFA (Setaria faberi (SETFA); [7]): 40
N[C@@H](C[n+]1ccc(-c2ncccn2)cn1)C(=O)O [Compound A208, [(1S)-1-carboxy-2-(4-pyrimidin-2-ylpyridazin-1-ium-1-yl)ethyl]ammonium 2,2,2-trifluoroacetate] | 100% | 80% | 40% | 30% | 60% | 50% | 20% | 10% | 60% | – | – | – | – | – | – | – | – | – | –
O=c1[nH]c(-c2cc[n+](CCCS(=O)(=O)[O-])nc2)ncc1Cl [Compound A173] | 30% | 50% | 20% | 30% | 10% | 40% | 20% | 10% | 30% | – | – | – | – | – | – | – | – | – | –
O=S(=O)([O-])CC[n+]1ccc(-c2ncccc2Cl)cn1 [Compound A141] | – | – | – | – | – | – | – | – | – | 100% | 60% | 40% | 50% | 60% | 20% | 30% | 30% | 50% | –
Nc1cnc(-c2cc[n+](CCC(=O)[O-])nc2)nc1 [Compound A44] | – | – | – | – | – | – | – | – | – | 40% | 10% | 40% | 30% | 20% | 20% | 20% | 20% | 60% | –
Nc1cc(-c2cc[n+](CCC(=O)O)nc2)ccn1 [Compound A210] | 70% | 10% | 60% | 10% | 20% | 10% | 10% | 20% | 30% | – | – | – | – | – | – | – | – | – | –
Cc1cnc(-c2cc[n+](CCS(=O)(=O)[O-])nc2)c(Cl)c1 [Compound A136] | – | – | – | – | – | – | – | – | – | 60% | 30% | 60% | 40% | 50% | 30% | 30% | 20% | 70% | –
O=C(O)CC[n+]1ccc(-c2cnc(C(F)(F)F)cn2)cn1 [Compound A121] | – | – | – | – | – | – | – | – | – | 100% | 80% | 40% | 40% | 20% | 80% | 20% | 30% | 30% | –
CC(C)(CC(=O)O)[n+]1ccc(-c2ccncn2)cn1 [Compound A189] | 100% | 100% | 50% | 80% | 90% | 90% | 70% | 30% | 70% | – | – | – | – | – | – | – | – | – | –
Cc1cc(F)cnc1-c1cc[n+](CCCS(=O)(=O)[O-])nc1 [Compound A196] | 30% | 40% | 0% | 0% | 10% | 30% | 20% | 0% | 0% | – | – | – | – | – | – | – | – | – | –
O=S(=O)([O-])CC[n+]1ccc(-c2ccc(Cl)cn2)cn1 [Compound A69] | – | – | – | – | – | – | – | – | – | 100% | 60% | 50% | 40% | 60% | 50% | 40% | 50% | 40% | –
O=C(O)CC[n+]1ccc(-c2ncc(F)cc2F)cn1 [Compound A144] | – | – | – | – | – | – | – | – | – | 20% | 10% | 30% | 20% | 20% | 20% | 10% | 10% | 20% | –
O=S(=O)([O-])OCCC[n+]1ccc(-c2ncccn2)cn1 [Compound A216] | 100% | 90% | 100% | 70% | 100% | 100% | 60% | 70% | 90% | – | – | – | – | – | – | – | – | – | –
O=S(=O)([O-])CCC[n+]1ccc(-c2ccc(-c3ccc(Cl)nn3)nn2)cn1 [Compound A168] | 0% | 40% | 10% | 20% | 20% | 30% | 20% | 10% | 10% | – | – | – | – | – | – | – | – | – | –
